Legend:
[1] = test system: ESBL enzymes from K. pneumoniae S48 producing Metalo betalactamase (NDM4) and Class A (CTX-M, SHV, TEM) beta-lactamase; assay: Beta-lactamase stability study (crude enzyme extract, then drug diffusion assay on E. coli ATCC 25922); type: biochemical; conditions: for Inhibition zone diameter after treatment with beta-lactamase enzyme: 40 μg/ml, zone on E. coli ATCC 25922
Experimental: Next, the beta-lactamase stability of some of these compounds was evaluated. In a typical stability study, ESBL enzymes from K. pneumoniae S48 producing Metalo betalactamase (NDM4) and Class A (CTX-M, SHV, TEM) beta-lactamase were isolated from freshly grown culture by 5 repetitive cycles of freeze and thaw in liquid nitrogen. […] After the stipulated incubation duration, the test compounds were extracted from the reaction mixture by the addition of 0.5 ml of Acetonitrile in 1:1 ratio (final concentration of test compound—40 μg/ml) and centrifuged at 12000 rpm for 2 min to separate precipitated protein. The activity of test compounds was measured from the supernatant by performing microbiological drug diffusion assay. For drug diffusion assay, Muller-Hinton Agar (MHA) seeded with E. coli ATCC 25922 was poured on to a bioassay plate placed on a flat surface and allowed to solidify. Appropriate concentration of the standalone and enzyme treated test compound dilutions were added to 6 mm wells cut with the help of a borer. The antibacterial activity of the test compounds was measured in terms of zones of inhibition appearing after 18-24 hours of incubation at 37° C. Measurement of diameter of zone of inhibition was undertaken to the nearest whole value with the help of ruler.

[2] = test system: Acinetobacter baumannii NCTC 13304 producing carbapenem hydrolyzing Class D OXA enzyme (OXA 27); assay: Time kill study (viability count); type: cell-based; conditions: Cefepime 8 μg/ml, Compound of Formula (III) 8 μg/ml, Imipenem 16 μg/ml
Experimental: (§1) The antibacterial effectiveness of various antibacterial agents in presence of a compound of Formula (III) was investigated and the results are detailed below. In a typical study, overnight cultures in Trypticase soya broth (TSB) were brought to log phase by 1 in 10 dilution in fresh cation adjusted Mueller Hinton Broth (MHB) and incubation for 2.5 hours at 35° C. in orbital shaker. Log phase cultures were diluted to desired inoculums in flasks with MHB, containing various drug concentrations. Flasks were incubated at 35° C. in orbital shaker with rotational speed of 125 rpm. Viability count was determined by 1 in 10 serial dilutions of samples in normal saline and surface spreading of 10 μl of dilutions in duplicate on Trypticase soya agar plates. Plates were incubated for 24 hours at 35° C. and colonies were enumerated to determine the colony forming units (CFU) per ml volume.

[3] = test system: E. coli ATCC 25922; assay: Time kill study (viability count); type: cell-based; conditions: for Bacterial count: Compound of Formula (III) 2 μg/ml, alone or combined
Experimental: as §1

[4] = test system: P. aeruginosa PAO1; assay: Time kill study (viability count); type: cell-based; conditions: for Bacterial count: Compound of Formula (III) 4 μg/ml, alone or combined
Experimental: as §1

[5] = test system: Pseudomonas aeruginosa NCTC 13437 producing carbapenem hydrolyzing MBL (VIM 10) & Class A (VEB1); assay: Time kill study (viability count); type: cell-based; conditions: Cefepime 8 μg/ml, Compound of Formula (III) 8 μg/ml, Imipenem 16 μg/ml
Experimental: as §1

[6] = test system: MDR Klebsiella pneumoniae B 88 producing NDM, SHV & TEM beta-lactamases; assay: Time kill study at MFC and MSC; type: cell-based; conditions: for Bacterial count: Cefepime 8 mcg/ml (MFC), Compound of Formula (III) 0.12 mcg/ml (MSC), Imepenem 8 mcg/ml
Experimental: (§2) The synergistic killing effect of the combinations according to invention was studied by performing time kill studies. In a typical time kill study, the freshly grown cultures were diluted to the required cell density (initial starting inoculum) in Cation adjusted Muller Hinton broth medium (BD, USA). The antibacterial agents (either alone or in combination) at the required concentrations were added into the culture-containing medium. The samples were incubated under shaking condition (120 rpm) at 37° C. Enumeration of viable bacterial count was done every 2 hour by diluting in normal saline and plating on to the Tryptic Soya Agar plates (BD, USA). The plates were incubated for 24 hours to arrive at the viable bacterial count. The results are expressed in terms of Log CFU per ml. In general, the decrease of 1 Log CFU/ml, corresponds to 90% killing of bacteria. Similarly, 2 Log CFU/ml reductions indicates to 99% killing of bacteria and 3 Log CFU/ml reductions is equal to 99.9% killing of bacteria.

[7] = test system: MDR P. mirabilis G 186 producing NDM & TEM β-lactamases; assay: Time kill study at MFC and MSC; type: cell-based; conditions: for Bacterial count: Cefepime 8 mcg/ml (MFC), Compound of Formula (III) 0.25 mcg/ml (MSC), Imepenem 8 mcg/ml
Experimental: as §2

[8] = test system: K. pneumoniae B88; assay: Minimum filamentation / spheroplasting concentration; conditions: K. pneumoniae B88 (NDM, SHV, TEM); minimum spheroplasting concentration
Text: The term “MSC” as used herein refers to minimum spheroplasting concentration, which is the minimum concentration of an antibacterial agent at which about 80% of bacterial cells covert into spheroplasts.
The term “MFC” as used herein refers to minimum filamentation concentration, which is the minimum concentration of an antibacterial agent at which about 80% of bacterial cells get elongated to form filament like structures.

Compound: O=C(NNC(=O)[C@@H]1CC[C@@H]2CN1C(=O)N2OS(=O)(=O)O)[C@@H]1CCCNC1 [Compound of Formula (III), trans-(2S,5R)-sulfuric acid mono-[2-(N′—[(R)-piperidin-3-carbonyl]-hydrazino Carbonyl)-7-oxo-1,6-diaza-bicyclo[3.2.1]oct-6-yl] Ester]
- Inhibition zone diameter after treatment with beta-lactamase enzyme ([1]; 0 hour incubation at 37° C.): 16 mm
- Inhibition zone diameter after treatment with beta-lactamase enzyme ([1]; 1 hour incubation at 37° C.): 16 mm
- Inhibition zone diameter after treatment with beta-lactamase enzyme ([1]; 2 hours incubation at 37° C.): 16 mm
- Inhibition zone diameter after treatment with beta-lactamase enzyme ([1]; 24 hours incubation at 37° C.): 16 mm
- Stability to beta-lactamase (in words) ([1]; carbapenem hydrolyzing metallo beta-lactamase, up to 24 hours): stable and not inactivated by the beta-lactamase
- Bacterial count ([2]; 0 hour): 6.3 log (CFU/ml)
- Bacterial count ([2]; 2 hours): 7.5 log (CFU/ml)
- Bacterial count ([2]; 4 hours): 7.9 log (CFU/ml)
- Bacterial count ([2]; 6 hours): 8.1 log (CFU/ml)
- Bacterial count ([2]; 8 hours): 8.1 log (CFU/ml)
- Bacterial count ([3]; 0 hour, Aztreonam 1 μg/ml): 7.47 log (CFU/ml)
- Bacterial count ([3]; 0 hour, Cefoxitin 1 μg/ml): 7.47 log (CFU/ml)
- Bacterial count ([3]; 0 hour, Cefsulodin 16 μg/ml): 7.47 log (CFU/ml)
- Bacterial count ([3]; 2 hours, Aztreonam 1 μg/ml): 7.85 log (CFU/ml)
- Bacterial count ([3]; 2 hours, Cefoxitin 1 μg/ml): 7.85 log (CFU/ml)
- Bacterial count ([3]; 2 hours, Cefsulodin 16 μg/ml): 7.85 log (CFU/ml)
- Bacterial count ([3]; 4 hours, Aztreonam 1 μg/ml): 7.88 log (CFU/ml)
- Bacterial count ([3]; 4 hours, Cefoxitin 1 μg/ml): 7.88 log (CFU/ml)
- Bacterial count ([3]; 4 hours, Cefsulodin 16 μg/ml): 7.88 log (CFU/ml)
- Bacterial count ([3]; 6 hours, Aztreonam 1 μg/ml): 8.26 log (CFU/ml)
- Bacterial count ([3]; 6 hours, Cefoxitin 1 μg/ml): 8.26 log (CFU/ml)
- Bacterial count ([3]; 6 hours, Cefsulodin 16 μg/ml): 8.26 log (CFU/ml)
- Bacterial count ([3]; 24 hours, Aztreonam 1 μg/ml): 8.34 log (CFU/ml)
- Bacterial count ([3]; 24 hours, Cefoxitin 1 μg/ml): 8.34 log (CFU/ml)
- Bacterial count ([3]; 24 hours, Cefsulodin 16 μg/ml): 8.34 log (CFU/ml)
- Bactericidal action (in words) ([3]; E. coli ATCC 25922, standalone or combination, Tables 3 to 5): did not exhibit any significant bactericidal action
- Bacterial count ([4]; 0 hour, Aztreonam 2 μg/ml): 5.74 log (CFU/ml)
- Bacterial count ([4]; 0 hour, Cefsulodin 2 μg/ml): 6.81 log (CFU/ml)
- Bacterial count ([4]; 2 hours, Aztreonam 2 μg/ml): 6.5 log (CFU/ml)
- Bacterial count ([4]; 2 hours, Cefsulodin 2 μg/ml): 7.23 log (CFU/ml)
- Bacterial count ([4]; 4 hours, Aztreonam 2 μg/ml): 7.6 log (CFU/ml)
- Bacterial count ([4]; 4 hours, Cefsulodin 2 μg/ml): 7.18 log (CFU/ml)
- Bacterial count ([4]; 6 hours, Aztreonam 2 μg/ml): 7.9 log (CFU/ml)
- Bacterial count ([4]; 6 hours, Cefsulodin 2 μg/ml): 7.5 log (CFU/ml)
- Bacterial count ([4]; 24 hours, Aztreonam 2 μg/ml): 8.8 log (CFU/ml)
- Bacterial count ([4]; 24 hours, Cefsulodin 2 μg/ml): 8.2 log (CFU/ml)
- Bactericidal action (in words) ([4]; P. aeruginosa PAO1, standalone or combination, Tables 6 and 7): did not exhibit any bactericidal action
- Bacterial count ([5]; 0 hour): 6.0 log (CFU/ml)
- Bacterial count ([5]; 2 hours): 6.55 log (CFU/ml)
- Bacterial count ([5]; 4 hours): 5.9 log (CFU/ml)
- Bacterial count ([5]; 6 hours): 5.81 log (CFU/ml)
- Bacterial count ([5]; 12 hours): 6.2 log (CFU/ml)
- Bacterial count ([6]; 0 hour): 6.14 Log10 CFU/ml
- Bacterial count ([6]; 2 hours): 7.3 Log10 CFU/ml
- Bacterial count ([6]; 4 hours): 7.8 Log10 CFU/ml
- Bacterial count ([6]; 6 hours): 7.9 Log10 CFU/ml
- Bacterial count ([6]; 8 hours): 8.5 Log10 CFU/ml
- Antibacterial activity (in words) ([6]; Klebsiella pneumoniae B 88, at MFC and MSC concentration, Table 13): did not exhibit antibacterial activity
- Bacterial count ([7]; 0 hour): 6.58 Log10 CFU/ml
- Bacterial count ([7]; 2 hours): 7.2 Log10 CFU/ml
- Bacterial count ([7]; 4 hours): 7.7 Log10 CFU/ml
- Bacterial count ([7]; 6 hours): 8.43 Log10 CFU/ml
- Bacterial count ([7]; 8 hours): 8.6 Log10 CFU/ml
- Antibacterial activity (in words) ([7]; P. mirabilis G 186, at MFC and MSC concentration, Table 14): did not exhibit antibacterial activity
- MSC [8]: 0.12 µg/mL
